These results are taken from US11873287B2, “Piperidine-2,6-dione derivatives and ulcerative colitis treating” (TIANJIN HEMAY PHARMACEUTICAL SCI-TECH CO., LTD, priority 2016, dated 2024).

Series [1] relates to DSS-Induced inflammatory Bowel Disease Models in Mice. The experiment in a line: DSS-induced inflammatory bowel disease model in mice (Biological Example 4, 1.3% DSS). The format is in vivo, C57BL/6 mice. Particulars: 30 mg/Kg i.g. Q.D; for Average Length of Colon (Mean ± SD) / Inhibitory Rate of Colonic Reduction: 1.3% DSS days 0-5. On the procedure: 40 healthy female C57BL/6 mice having weight of 16-19 g were randomly divided into 4 groups in accordance with weight. There were 10 mice in each group (see Table 6 below). The first day of the experiment was recorded as Day 0. The administration regimen and induction regimen were detailed in Table 6. The change in weight of experimental animals was recorded every day. […] Samples of animal colonic tissues were obtained to measure the length. One-way ANOVA analysis of mice weights was performed by SPSS22. Statistical analyses between groups were performed. Mann-Whitney U non-parametric test was performed on the length of colon.
The experimental method used in the present biological example is identical to those in Biological Example 3.
Calculation Formula of Inhibitory Rate of Colonic Reduction: (Length of Colon in Administration Group−Length of Colon in Model Group)/(Length of Colon in Blank Group−Length of Colon in Model Group)

For series [2], the system named is ICR mice. The experiment in a line: Acute toxicity experiment of single oral administration in mice. The format is in vivo. Particulars: 1000 mg/Kg single oral dose. On the procedure:
The mice were fasted one day before the experiment. On the day of the experiment, 6 mice (ICR mice, body weight of 19-21 g, three females and three males) were selected in each experiment group. First of all, one female and one male were selected to orally give 1000 mg/Kg, and observed for 5-10 minutes. If there were no obvious side effects, the remaining 4 animals were orally given the same dose, and observed for 10-15 minutes. If no animal died, the animals were placed in a box to balancedly feed for 7 days. The state was observed and the body weight was recorded daily.
Observation Indexes within 0-15 Minutes After Administration
Activity: restlessness, hyperactivity
Nervous system response: tremor, spasm, convulsion, ataxia, posture abnormality, etc.
Autonomic nerve: exophthalmos, salivation, tears, urination (hematuria), diarrhea, piloerection, breathing, etc.
Observation Indexes Over 7 Days
State of Animal: lethargy, hyperactivity, excitement, hair loss, diarrhea, abnormal behavior, death, etc.

Regarding `CNc1cccc2c1C(=O)N(C1CCC(=O)N(CCOC)C1=O)C2=O` (stereo not drawn) [Example 2, 4-methylamino-2-(1-(2-methoxyethyl)-2,6-dioxopiperidin-3-yl)isoindolin-1,3-dione], the “Average Length of Colon (Mean ± SD)” value in series [1] is 6.9 ± 0.2 cm. Further, the “Inhibitory Rate of Colonic Reduction” value in series [1] was found to be 66.7%. The “Weights of Experimental Mice (Mean ± SD)” value came out at 20.1 ± 0.8 g in series [1] (Day 0); 20.0 ± 0.7 g in series [1] (Day 1); 19.8 ± 0.6 g in series [1] (Day 2); 20.2 ± 0.8 g in series [1] (Day 3); 20.2 ± 0.8 g in series [1] (Day 4); 20.0 ± 0.6 g in series [1] (Day 5). Further, the “Weights of Experimental Mice (Mean ± SD)” value is recorded as 18.9 ± 0.6 g in series [1] (Day 6), 18.8 ± 0.7 g in series [1] (Day 7), 18.8 ± 1.0 g in series [1] (Day 8) and 19.0 ± 1.1 g in series [1] (Day 9). Further, the “Daily Body Weight of Tested Female Mice (Mean ± SD)” value in series [2] (Day 1) is on record as 19.2 ± 0.5 g; in series [2] (Day 2), 22.7 ± 0.6 g; in series [2] (Day 3) it was 23.2 ± 0.5 g; in series [2] (Day 4), 23.2 ± 0.5 g; in series [2] (Day 5), 24.4 ± 0.2 g; in series [2] (Day 6), 24.6 ± 1.1 g. Moreover, in series [2] (Day 7), the “Daily Body Weight of Tested Female Mice (Mean ± SD)” value is 24.5 ± 1.9 g. The “Daily Body Weight of Tested Male Mice (Mean ± SD)” value came out at 18.6 ± 0.5 g in series [2] (Day 1); 24.1 ± 0.4 g in series [2] (Day 2); 24.7 ± 0.2 g in series [2] (Day 3); 24.7 ± 0.2 g in series [2] (Day 4); 26.2 ± 0.6 g in series [2] (Day 5); 28.8 ± 0.5 g in series [2] (Day 6). Further, in series [2] (Day 7), the “Daily Body Weight of Tested Male Mice (Mean ± SD)” value is recorded as 29.2 ± 0.8 g. Moreover, the “Summary of toxic response of tested animals in 7 Days” value (“Summary” below) is recorded as “Abnormality was not observed in 7 days of the test” in series [2] (Female) and “Slight abnormality of activity was occasionally observed in two” in series [2] (Male).

With `Nc1cccc2c1C(=O)N(C1CCC(=O)N(CCO)C1=O)C2=O` (stereo not drawn) [Example 6, 4-amino-2-(1-(2-hydroxyethyl)-2,6-dioxopiperidin-3-yl)isoindolin-1,3-dione], the “Average Length of Colon (Mean ± SD)” value in series [1] was 6.9 ± 0.3 cm. In addition, in series [1], the “Inhibitory Rate of Colonic Reduction” value is on record as 66.7%. Besides, the “Weights of Experimental Mice (Mean ± SD)” value in series [1] (Day 0) came out at 19.8 ± 0.6 g; in series [1] (Day 1) it was 19.9 ± 0.7 g; in series [1] (Day 2), 19.7 ± 0.7 g; in series [1] (Day 3) it was 20.0 ± 0.6 g; in series [1] (Day 4) it was 20.0 ± 0.6 g; in series [1] (Day 5), 19.9 ± 0.7 g. The “Weights of Experimental Mice (Mean ± SD)” value in series [1] (Day 6) worked out at 19.5 ± 0.6 g; in series [1] (Day 7) it was 19.4 ± 0.8 g; in series [1] (Day 8) it was 19.5 ± 0.7 g; in series [1] (Day 9), 19.6 ± 1.1 g. For the same molecule, the “Daily Body Weight of Tested Female Mice (Mean ± SD)” value in series [2] (Day 1) was found to be 17.5 ± 0.9 g; in series [2] (Day 2) it was 21.5 ± 0.9 g; in series [2] (Day 3) it was 21.6 ± 1.3 g; in series [2] (Day 4), 22.0 ± 1.2 g; in series [2] (Day 5), 22.3 ± 1.9 g; in series [2] (Day 6) it was 22.4 ± 2.3 g. In addition, the “Daily Body Weight of Tested Female Mice (Mean ± SD)” value in series [2] (Day 7) is on record as 22.9 ± 2.0 g. In addition, the “Daily Body Weight of Tested Male Mice (Mean ± SD)” value in series [2] (Day 1) amounted to 18.4 ± 0.6 g; in series [2] (Day 2), 21.5 ± 0.9 g; in series [2] (Day 3), 21.6 ± 1.3 g; in series [2] (Day 4) it was 25.5 ± 0.5 g; in series [2] (Day 5) it was 25.9 ± 0.9 g; in series [2] (Day 6) it was 26.9 ± 1.1 g. Further, the “Daily Body Weight of Tested Male Mice (Mean ± SD)” value in series [2] (Day 7) was determined as 27.1 ± 1.1 g. The “Summary” value in series [2] (Female) and in series [2] (Male) was “Abnormality was not observed in 7 days of the test” each time.

Regarding `COCCCN1C(=O)CCC(N2C(=O)c3cccc(NC(C)=O)c3C2=O)C1=O` (stereo not drawn) [Example 16, 4-acetylamino-2-(1-(3-methoxypropyl)-2,6-dioxopiperidin-3-yl)isoindolin-1,3-dione], the “Average Length of Colon (Mean ± SD)” value in series [1] worked out at 7.0 ± 0.4 cm. Further, the “Inhibitory Rate of Colonic Reduction” value in series [1] amounted to 73.3%. Further, the “Weights of Experimental Mice (Mean ± SD)” value was determined as 19.8 ± 0.6 g in series [1] (Day 0); 19.9 ± 0.4 g in series [1] (Day 1); 19.7 ± 0.4 g in series [1] (Day 2); 19.9 ± 0.6 g in series [1] (Day 3); 19.7 ± 0.5 g in series [1] (Day 4); 19.6 ± 0.5 g in series [1] (Day 5). The “Weights of Experimental Mice (Mean ± SD)” value is on record as 19.3 ± 0.7 g in series [1] (Day 6), 19.0 ± 1.0 g in series [1] (Day 7), 18.9 ± 1.2 g in series [1] (Day 8) and 18.9 ± 1.1 g in series [1] (Day 9).

For `CCOCCN1C(=O)CCC(N2C(=O)c3cccc(N)c3C2=O)C1=O` (stereo not drawn) [Example 19, 4-amino-2-(1-(2-ethoxyethyl)-2,6-dioxopiperidin-3-yl)isoindolin-1,3-dione], the “Average Length of Colon (Mean ± SD)” value in series [1] is 6.9 ± 0.4 cm. Also, in series [1], the “Inhibitory Rate of Colonic Reduction” value turned out to be 66.7%. Also, the “Weights of Experimental Mice (Mean ± SD)” value was determined as 19.6 ± 0.7 g in series [1] (Day 0); 19.6 ± 0.8 g in series [1] (Day 1); 19.7 ± 0.7 g in series [1] (Day 2); 19.9 ± 0.7 g in series [1] (Day 3); 20.0 ± 0.7 g in series [1] (Day 4); 19.7 ± 0.5 g in series [1] (Day 5). Further, the “Weights of Experimental Mice (Mean ± SD)” value amounted to 19.2 ± 0.7 g in series [1] (Day 6), 18.9 ± 0.8 g in series [1] (Day 7), 19.0 ± 1.0 g in series [1] (Day 8) and 19.4 ± 0.8 g in series [1] (Day 9). Besides, the “Daily Body Weight of Tested Female Mice (Mean ± SD)” value was determined as 18.0 ± 0.6 g in series [2] (Day 1); 20.7 ± 1.1 g in series [2] (Day 2); 21.3 ± 0.6 g in series [2] (Day 3); 22.8 ± 0.3 g in series [2] (Day 4); 23.2 ± 0.7 g in series [2] (Day 5); 23.3 ± 1.2 g in series [2] (Day 6). Moreover, in series [2] (Day 7), the “Daily Body Weight of Tested Female Mice (Mean ± SD)” value is 23.0 ± 1.7 g. The “Daily Body Weight of Tested Male Mice (Mean ± SD)” value in series [2] (Day 1) came out at 18.9 ± 1.2 g; in series [2] (Day 2), 20.7 ± 1.1 g; in series [2] (Day 3), 21.3 ± 0.6 g; in series [2] (Day 4), 25.0 ± 2.0 g; in series [2] (Day 5), 24.8 ± 1.9 g; in series [2] (Day 6) it was 26.5 ± 1.9 g. For the same molecule, the “Daily Body Weight of Tested Male Mice (Mean ± SD)” value in series [2] (Day 7) is 27.7 ± 2.2 g. The “Summary” value in series [2] (Female) is “Severe motor dysfunction in three animals was observed 30”; in series [2] (Male), “Severe motor dysfunction in two animals was observed 30”.
